Assay results: patent US20150189882A1, “ACTIVE INGREDIENT COMBINATIONS HAVING INSECTICIDAL AND ACARICIDAL PROPERTIES” (priority 2011, published 2015)
Where two headings read alike, the source gives them in different places.

Experiments:
Spodoptera frugiperda = Spodoptera frugiperda - spray application; assay type: in vivo; details: Spodoptera frugiperda; for mortality at 4 g/ha: 4 g ai/ha; for mortality at 20 g/ha: 20 g ai/ha; for mortality at 100 g/ha: 100 g ai/ha
Procedure: (§1) To produce a suitable preparation of active compound, 1 part by weight of active compound is mixed with the stated amount of solvent and emulsifier, and the concentrate is diluted with emulsifier-containing water to the desired concentration. To produce a suitable preparation of a biological suspension the cells, viruses or spores are diluted with emulsifier-containing water to the desired concentration.
Cabbage (Brassica oleracea) leaf-discs are sprayed with a preparation of the active ingredient at the desired concentration. Once dry, the leaf discs are infested with larvae of the fall army worm (Spodoptera frugiperda).
After the specified period of time, mortality in % is determined. 100% means that all the caterpillars have been killed; 0% means that none of the caterpillars have been killed. The mortality values thus determined are recalculated using the Colby-formula.

[1] = system: Tetranychus urticae (OP-resistant); assay: Tetranychus urticae - test (OP-resistant), French bean leaf discs; assay type: in vivo; details: Tetranychus urticae, foliar; for mortality at 4 g/ha: 4 g ai/ha
Procedure: as §1, with “cells” for “cells, viruses”
Leaf discs of French beans (Phaseolus vulgaris) infected with all instars of the Two-spotted spider mite (Tetranychus urticae), are sprayed with a preparation of the active ingredient at the desired concentration.
After the specified period of time mortality in % is determined. 100% means that all spider mites have been killed; 0% means that none of the spider mites have been killed.

[2] = system: Tetranychus urticae (OP-resistant); assay: Tetranychus urticae - test; OP-resistant (TETRUR), bean plants sprayed; assay type: in vivo
Procedure: as §1, with “the desired concentration Ammonium salt and/or penetration enhancer in a dosage of 1000 ppm are added to the desired concentration if necessary. To produce” for “the desired concentration. To produce”, “suspension the cells or spores” for “suspension the cells, viruses or spores”
Bean plants (Phaseolus vulgaris) which are heavily infested with all stages of the two-spotted spider mite (Tetranychus urticae) are treated by being sprayed with the preparation of the active compound of the desired concentration.
After the specified period of time, mortality in % is determined 100% means that all the spider mites have been killed; 0% means that none of the spider mites have been killed.

soybean (Glycine max) [3] = assay: Seed treatment - germination test soybean; assay type: in vivo; details: 0.15 g ai/kg seeds
Procedure: Seeds of soybean (Glycine max) were treated by being mixed with the desired amount of active compound and spores and water. After drying, 25 seeds were sown into each pot filled with sandy loam.
After the specified period of time the level of activity expressed in % was determined. The level of activity was calculated on the basis of the number of soybean plants which have successfully germinated.

soybean (Glycine max) [4] = assay: Shoot weight - soybean (seed treatment); assay type: in vivo; details: 0.3 g ai/kg seeds
Procedure: Seeds of soybean (Glycine max) were treated by being mixed with the desired amount of active compound and spores and water. After drying, each seed was sown into a pot filled with loamy sand. The pots were placed in the greenhouse with conditions appropriate for good plant growth.
After the specified period of time the plants were harvested and the shoot weight of the plants was determined. The weight is expressed in % whereupon the weight of the control is set 100%.

Myzus persicae = assay: whole plant or invertebrate; details: in Brassica rapa, foliar
[5] = system: Phaedon cochleariae larvae; assay: whole plant or invertebrate
[6] = read-out: Mortality in % after 2^d
[7] = read-out: Mortality in % after 6^d
[8] = read-out: Mortality in % after 1^d

SMILES: Cc1cc(F)c(-n2nc(C(F)(F)F)nc2N)cc1[S+]([O-])CC(F)(F)F (racemic) [Compound (I)]
- mortality at 0.8 g/ha (Spodoptera frugiperda; 0.8 g ai/ha, read-out: Mortality in % after 6^d): 0%
- mortality at 4 g/ha (Spodoptera frugiperda; [6]): 0%
- mortality at 4 g/ha (Spodoptera frugiperda; [7]): 0%
- mortality at 20 g/ha (Spodoptera frugiperda; [6]): 0%
- mortality at 20 g/ha (Spodoptera frugiperda; [7]): 0%
- mortality at 100 g/ha (Spodoptera frugiperda; [6]): 0%
- mortality at 100 g/ha (Spodoptera frugiperda; [7]): 0%
- mortality at 4 g/ha [1, 6]: 30%
- mortality at 4 g/ha [1, 7]: 30%
- mortality at 20 g/ha ([1]; 20 g ai/ha, read-out: Mortality in % after 2^d): 80%
- mortality at 0.8 ppm ([2]; read-out: Mortality in % after 3^d): 40%
- mortality at 0.8 ppm ([2]; read-out: Mortality in % after 5^d): 40%
- % Germination after 3 days control was set 100% (soybean (Glycine max) [3]): 97%
- Shoot weight after 21 days control was set 100% (soybean (Glycine max) [4]): 98%
- mortality at 4 g/ha (Myzus persicae; [8]): 0%
- mortality at 20 g/ha (Myzus persicae; [8]): 0%
- mortality at 100 g/ha (Myzus persicae; [8]): 0%
- mortality at 4 g/ha (Myzus persicae; [7]): 0%
- mortality at 20 g/ha (Myzus persicae; [7]): 0%
- mortality at 100 g/ha (Myzus persicae; [7]): 0%
- mortality at 0.8 g/ha [5, 6]: 0%
- mortality at 4 g/ha [5, 6]: 0%
- mortality at 20 g/ha [5, 6]: 0%
- mortality at 100 g/ha [5, 6]: 0%
- mortality at 4 g/ha [5, 7]: 0%
- mortality at 20 g/ha [5, 7]: 0%
- mortality at 100 g/ha [5, 7]: 0%
